These results are taken from patent US11352358B2, “FXR agonist” (XUANZHU BIOPHARMACEUTICAL CO., LTD., priority 2017, dated 2022).

Data set [1] can be described thus: Liver microsome metabolism stability, human liver microsome. The data set is classed as in vitro ADME. The following applies: 0.5 mg protein/mL, test sample 1 μM, β-NADPH. The method, then:
(§1) Test samples: the homemade compounds 1, 2, 4 and 5 of the present invention (for their chemical names and preparation methods, see the preparation example for each compound).
(§2) a mixed liver microsomes of SD rat and human both purchased from XenoTech, with batch Nos.: 1410271 (SD rat) and 1410013 (human) respectively, wherein the microsomal protein concentrations both were 20 mg mL^−1;
(§3) experimental promoter β-NADPH purchased from Roche (batch No.: 524F0231); and a phosphate buffer solution (pH 7.4) made in the lab.
(§4) An appropriate amount of the test sample powder was weighed accurately, and dissolved in an appropriate amount of dimethyl sulfoxide (DMSO) to a concentration of 1 mM; and the solution was then diluted by 20 times with methanol to yield a 50 μM working solution.
(§5) (1) According to the proportions in table 3 “Composition of the incubation system for liver microsome metabolism stability experiment” above, for each compound, 6 mL of PBS (100 mM), 0.6 mL of MgCl2 solution (20 mM) and 3.66 mL of H2O were made into a mixed solution 1 for the incubation system (not containing the microsomes, the test sample and β-NADPH).
(§6) (2) Liver microsomes (20 mg protein/mL) were taken from a refrigerator (−80° C.), and were placed on a thermostatic water bath oscillator (37° C.) and pre-incubated for 3 mins.
(§7) (3) For each compound, 1.88 mL of the mixed solution 1 for the incubation system was added with 55 μL of microsomes to obtain a mixed solution 2 for the incubation system (not containing the test sample and β-NADPH).
(§8) (4) Sample group (containing the microsomes and D-NADPH): 616 μL of mixed solution 2 for the incubation system was added with 14 μL of the test sample working solution (with a concentration of 50 μM), and with 70 μL of R-NADPH working solution (10 mM). The resulted solution was well mixed, and the resulted solution was then duplicated. The time points of sampling were at 0 min, 5th min, 10th min, 20th min, 30th min and 60th min.
(§9) (5) Control group (containing the microsomes, and water instead of D-NADPH): 264 μL of mixed solution 2 for the incubation system was added with 6 μL of the test sample working solution (50 μM), and with 30 μL of water. The resulted solution was well mixed, and the resulted solution was then duplicated. The time points of sampling were at 0 min and 60th min.
(§10) (6) 50 μL of sample was taken from an incubating sample tube at each predetermined time point, added to a terminating sample tube (containing 300 μL of cold terminator), and vortexed; and the reaction was terminated.
(§11) (7) after 10 mins of vortexing, the solution was centrifuged for 5 mins (12,000 rpm).
(§12) (8) 100 μL of supernatant was taken and added with 100 μL of water, and the mixture solution was thoroughly vortexed; and the solution was then analyzed by LC-MS/MS.
(§13) Percentages of residual contents were calculated according to the following formula.
(Liver microsomes are vesicles of endoplasmic reticulum, rich in cytochrome P450 enzymes.)

A short description of data set [2]: Liver microsome metabolism stability, rat liver microsome. The following applies: 0.5 mg protein/mL, test sample 1 μM, β-NADPH. It is filed as in vitro ADME, SD rat. The method, then:
as §1, §2, §3, §4, §5, §6, §7, §8, §9, §10, §11, §12, §13

Another data set relates to BSEP mRNA in HepG2 cells. The data set is described as follows: Relative expression of BSEP mRNA in HepG2 cells, EC50 (Experimental Example 3). It is filed as cell-based. The following applies: Homo sapiens, 24 hrs. How it is done:
(§14) compounds of the present invention (for their chemical names and preparation methods, see the preparation example for each compound).
(§15) HepG2 cell: human liver cancer cell;
BSEP: bile salt export pump;
(§16) Control: compound 1-1B with a structure shown as follows, prepared according to a prior art method (for detailed information, see patent application WO2012087519A1).
(§17) Cells were digested with pancreatin and collected, and the concentration of the cells was determined; according to the counting result, the cells were resuspended to a density of 7.5×10^5 cells/mL; 2 mL of the cell suspension was inoculated in each well of a 6-well cell culture plate; and the culture plate was placed in an incubator and cultured under the conditions of 37° C. and 5% CO2 for 24 hrs.
(§18) The compounds were diluted to 3000, 1000, 200, 8, 1.6, 0.32, 0.0128, 0.00256 and 0.000512 μM with DMSO. Compound solutions of different concentrations obtained in the previous step were further diluted by 1,000 times with media to obtain working solutions, and a medium containing 0.1% of DMSO was adopted as a control group. The cell culture plate was taken out from the incubator, the medium was removed, and the working solutions and the control medium were added. The culture plate was placed back into the incubator and cultured under the conditions of 37° C. and 5% CO2 for 24 hrs. […]

A further data set has as its system SHP mRNA in HepG2 cells. The data set is described as follows: Relative expression of SHP mRNA in HepG2 cells, EC50 (Experimental Example 3). The data set is classed as cell-based. The following applies: Homo sapiens, 24 hrs. How it is done:
as §14, §15
SHP: small heterodimer partner;
as §16, §17, §18

In data set [3] the test system is CYP7A1 mRNA in HepG2 cells. The data set is described as follows: Relative expression of CYP7A1 mRNA in HepG2 cells, IC50 (Experimental Example 3). The data set is classed as cell-based. The following applies: Homo sapiens, 24 hrs. The method, then: as §14, §15
CYP7A1: cholesterol 7-alpha hydroxylase;
as §16, §17, §18

For a further data set, the system named is SHP mRNA in AML12 cells. As to the kind of experiment: Relative expression of SHP mRNA in AML12 cells, EC50 (Experimental Example 4). The data set is classed as cell-based. The following applies: Mus musculus, 24 hrs. The method, then:
as §14
AML12 cells: mouse liver cells.
as §16
Cells were digested with pancreatin and collected, and the concentration of the cells was determined; according to the counting result, the cells were resuspended to a density of 7.5×10^4 cells/mL; 1 mL of the cell suspension was inoculated in each well of a 12-well cell culture plate; and the culture plate was placed in an incubator and cultured under the conditions of 37° C. and 5% CO2 for 24 hrs.
The compound were diluted to 1000, 200, 8, 1.6, 0.32, 0.128, 0.0256 and 0.00512 μM with DMSO. Compound solutions of different concentrations obtained in the previous step were further diluted by 1000 times with media to obtain working solutions, and a medium containing 0.1% of DMSO was adopted as a control group. The cell culture plate was taken out from the incubator, the medium was removed, and the working solutions and the control medium were added. The culture plate was placed back into the incubator and cultured under the conditions of 37° C. and 5% CO2 for 24 hrs.
after treatment for 24 hrs, the cell culture plate was taken out from the incubator, and the medium was removed from the plate; the cells were rinsed three times with pre-cooled (4° C.) PBS (phosphate buffer solution); and 200 μL of pancreatin (preheated to 37° C.) was added to each well, and the plate was then gently shaken such that the pancreatin could evenly cover the plate bottom. The culture plate was then placed back into the incubator and incubated until the cells were separated from the plate bottom. 1 mL of medium was added to terminate digestion. […]

For orientation: EC50 means the concentration giving half of the maximal effect. A high value points to a less potent agent. As a reminder, the IC50 is the midpoint of a concentration-inhibition curve. A higher IC50 goes with a need for much substance. Consider `O=C(O)c1cc(F)c2nc(N3C[C@@H]4C[C@H]3C[C@H]4OCc3c(-c4ccccc4OC(F)(F)F)noc3C3CC3)sc2c1` [Compound 8, 2-((1S, 4S, 5R)-5-((5-cyclopropyl-3-(2-(trifluoromethoxy)phenyl)isoxazol-4-yl)methoxy)-2-azabicyclo[2.2.1]heptan-2-yl)-4-fluorobenzo[d]thiazole-6-formic acid], for which the “Residual content (%) after 60 minutes of incubation” value in data set [1] stood at 96%; in data set [2], 73%. Moreover, the values for the EC50 in the data set with BSEP mRNA in HepG2 cells, in the data set on SHP mRNA in HepG2 cells and in the data set with SHP mRNA in AML12 cells were 0.35 nM, 0.09 nM and 0.89 nM, respectively. Further, the IC50 in data set [3] stood at 0.02 nM.
Regarding `O=C(O)c1cc(F)c2nc(N3[C@@H]4CC[C@H]3C[C@@H](OCc3c(-c5ccccc5OC(F)(F)F)noc3C3CC3)C4)sc2c1` [Compound 1-1B, reference compound], the EC50 came out at 0.75 nM in the data set on BSEP mRNA in HepG2 cells, 0.26 nM in the data set with SHP mRNA in HepG2 cells and 1.51 nM in the data set on SHP mRNA in AML12 cells. Moreover, inhibition in data set [3] was half-maximal at 0.1 nM (IC50).
